{"source": "patent US7977375B2", "about": "“Antibiotic and method of production thereof” (Helmholtz-Zentrum Für Infektionsforschung GmbH, priority 2004, dated 2011)", "key": {"E. faecalis ATCC 29212 [1]": {"tested_on": "E. faecalis ATCC 29212", "experiment": "agar diffusion method, inhibition zone", "format": "cell-based, Enterococcus faecalis", "settings": "Enterococcus faecalis, ATCC29212; E. faecalis ATCC 29212; MH agar, 18 hours at 37° C.; per disk 10 μl crude extract, 50 μg macrolactin, 78 μg erythromycin, 30 μg vancomycin, 10 μg ampicillin", "procedure": "(§1) The agar diffusion method employing Mueller-Hinton (MH) agar (Difco Laboratories) was used to determine effectiveness against bacteria and yeasts. Sterile paper disks (Schleicher & Schüell, Germany) were seeded with 10 μl crude extract or with a solution of purified macrolactin (final compound concentration on the disk 50 μg) and then placed on the surface of MH-agar plates that had been seeded beforehand with a suspension of overnight culture of the test microorganisms at a concentration of 10^5 cells/ml."}, "E. faecalis VRAS E305": {"tested_on": "E. faecalis VRAS E305", "experiment": "agar diffusion method, inhibition zone", "format": "cell-based, Enterococcus faecalis", "settings": "E. faecalis VRAS E305, MH agar, 18 hours at 37° C., per disk 10 μl crude extract, 50 μg macrolactin, 78 μg erythromycin, 30 μg vancomycin, 10 μg ampicillin", "procedure": "as §1"}, "E. faecium VRAR E315 [2]": {"tested_on": "E. faecium VRAR E315", "experiment": "agar diffusion method, inhibition zone", "format": "cell-based, Enterococcus faecium", "settings": "Enterococcus faecium, VRARE315; E. faecium VRAR E315; MH agar, 18 hours at 37° C.; per disk 10 μl crude extract, 50 μg macrolactin, 78 μg erythromycin, 30 μg vancomycin, 10 μg ampicillin", "procedure": "as §1"}, "[3]": {"tested_on": "S. aureus # (non-methicillin-resistant reference strain)", "experiment": "MIC / MBC in liquid culture", "format": "cell-based, Staphylococcus aureus", "settings": "S. aureus #"}, "MRSA 3": {"tested_on": "MRSA 3", "experiment": "MIC / MBC in liquid culture", "format": "cell-based, Staphylococcus aureus", "settings": "MRSA 3"}, "E. faecalis ATCC 29212 [4]": {"tested_on": "E. faecalis ATCC 29212", "experiment": "MIC / MBC in liquid culture", "format": "cell-based, Enterococcus faecalis"}, "E. faecium VRAR E315 [5]": {"tested_on": "E. faecium VRAR E315", "experiment": "MIC / MBC in liquid culture", "format": "cell-based, Enterococcus faecium", "settings": "E. faecium VRAR E315"}, "B. cepacia SCV 141": {"tested_on": "B. cepacia SCV 141", "experiment": "MIC / MBC in liquid culture", "format": "cell-based, Burkholderia cepacia", "settings": "Burkholderia cepacia", "from_the_text": "(§2) 7-O-malonyl macrolactin A was not effective against some of the gram-negative bacteria tested by the inventors."}, "B. cepacia WT139": {"tested_on": "B. cepacia WT139", "experiment": "MIC / MBC in liquid culture", "format": "cell-based, Burkholderia cepacia", "from_the_text": "as §2"}, "[6]": {"tested_on": "Candida albicans DSM 11225", "experiment": "MIC / MBC in liquid culture", "format": "cell-based", "settings": "DSM11225, read-out: MIC (minimal inhibitory concentration)"}, "[7]": {"tested_on": "Staphylococcus aureus (#)", "experiment": "kinetics of growth at sub-MIC concentrations (FIG. 1A)", "format": "cell-based", "settings": "S. aureus #, 1 or 4 μg/ml", "procedure": "Investigation of the bacteriostatic activity of 7-O-malonyl macrolactin A required testing the effects of sub-MIC concentrations. […] 24 hours after treatment, the titre of viable cells was reduced by a factor of 100 as compared to the control without 7-O-malonyl macrolactin A.\n(§3) • FIG. 1A y-axis: Log CFU (Colony Forming Units) Cells/ml • x-axis: Time (HRS) • FIG. 1B y-axis: Log CFU (Colony Forming Units) Cells/ml • x-axis: Time (HRS) • FIG. 1C: y-axis: Log CFU (Colony Forming Units) Cells/ml • x-axis: Time (HRS) • FIG. 1D: y-axis: Log CFU (Colony Forming Units) Cells/ml • x-axis: Time (HRS) • FIG. 1E: y-axis: Log CFU (Colony Forming Units) Cells/ml • x-axis: Time (HRS) • FIG. 1F: y-axis: Log CFU (Colony Forming Units) Cells/ml • x-axis: Time (HRS) • FIG. 5A: y-axis: % Inhibition • x-axis Concentration μg/ml • FIG. 5B: y-axis: % Inhibition • x-axis Concentration μg/ml"}, "[8]": {"tested_on": "Enterococcus faecium VRAR E315", "experiment": "kinetics of growth at sub-MIC concentrations (FIG. 1D)", "format": "cell-based", "settings": "E. faecium E315; 4 or 16 μg/ml; four hours following cultivation", "from_the_text": "as §3"}, "S. aureus MRSA 3": {"tested_on": "S. aureus MRSA 3", "experiment": "electron microscopy of cell division (FIG. 2)", "format": "cell-based, Staphylococcus aureus", "settings": "16 μg/ml, 4 hours shake culture", "procedure": "FIGS. 2 a), b) and c) are electron microscope photographs of S. aureus MRSA 3 after 4 hours growth without antibiotic and d), e) and f) in the presence of 16 μg/ml 7-O-malonyl macrolactin A;\n(§4) It is thought that 7-O-malonyl macrolactin A inhibits the division of bacterial cells, which interrupts the proliferation thereof.\n7-O-malonyl macrolactin A influences cell division in MRSA 3, which is evident from the altered division planes. […] The large black arrowheads (FIGS. 2e) and f)) indicate the division planes, while the small black arrowheads indicate an asymmetrical initiation of cell division."}, "Burkholderia cepacia SCV": {"tested_on": "Burkholderia cepacia SCV", "experiment": "electron microscopy of cell division (FIG. 4)", "format": "cell-based", "settings": "128 μg/ml, 4 hours shake culture", "procedure": "FIG. 4 a) to c) are electron microscope photographs of Burkholderia cepacia SCV after 4 hours growth without antibiotic and d), e) and f) in the presence of 128 μg/ml 7-O-malonyl macrolactin A;\nas §4\nThe electron microscope photographs moreover elucidate the bacteriostatic effect of 7-O-malonyl macrolactin A against gram-negative bacteria, an example whereof is the cell division of Burkholderia cepacia. Thus, FIGS. 4a, b and c show Burkholderia cepacia SCV (clinical isolate) in a shake culture without the addition of antibiotic ingredients (control) and FIGS. 4d, e and f after 4 hours growth in a shake culture in the presence of 128 μg/ml 7-O-malonyl macrolactin A. In the control culture, white arrowheads point to the cell division planes and the transverse walls in connection therewith. In the case of the gram-negative cells treated with 7-O-malonyl macrolactin A, (FIGS. 4e and f) black arrows indicate the cell division planes and the unnatural protuberances."}, "[9]": {"tested_on": "bacteria, especially gram-positive bacteria", "experiment": "bacteriostatic activity, general statement", "format": "cell-based", "settings": "very low concentrations", "procedure": "7-O-malonyl macrolactin A is antibiotically active against bacteria, especially gram-positive bacteria and is, in particular, advantageously bacteriostatic at very low concentrations, for example, in the region of 0.05-4 μg/ml. […] The bacteriostatic activity of 7-O-malonyl macrolactin A has already been observed at weak concentrations, as compared to the prior art macrolactin A, even where there has been no direct or immediate bactericidal effect at such low concentrations."}, "[10]": {"settings": "Staphylococcus aureus, pronounced inhibition of growth, read-out: MBC (minimal bacteriostatic or fungistatic concentration)"}, "[11]": {"settings": "Staphylococcus aureus, read-out: MIC (minimal inhibitory concentration)"}}, "data": [{"smiles": "CC1CCC/C=C/C=C/C(O)CC(O)C/C=C\\C=C\\C(OC(=O)CC(=O)O)C/C=C/C=C\\C(=O)O1", "note": "(stereo not shown) [7-O-malonyl macrolactin A]", "values": [{"measurement": "zone of inhibition at 50 µg/disc", "setting": "E. faecalis ATCC 29212 [1]", "value": 25, "unit": "mm"}, {"measurement": "Inhibition zone", "setting": "E. faecalis VRAS E305", "value": "produced an inhibition zone"}, {"measurement": "zone of inhibition at 50 µg/disc", "setting": "E. faecalis VRAS E305; Enterococcus faecalis, VRASE305", "value": 15, "unit": "mm"}, {"measurement": "zone of inhibition at 50 µg/disc", "setting": "E. faecium VRAR E315 [2]", "value": 15, "unit": "mm"}, {"measurement": "MIC (minimal inhibitory concentration)", "setting": "[3]", "value": ">128", "unit": "µg/mL"}, {"measurement": "MBC", "setting": "[3]; [10]", "value": 1, "unit": "µg/mL"}, {"measurement": "MIC", "setting": "[3]; [11]", "value": "> 128", "unit": "µg/mL"}, {"measurement": "MIC (minimal inhibitory concentration)", "setting": "MRSA 3", "value": ">128", "unit": "µg/mL"}, {"measurement": "MBC", "setting": "MRSA 3; [10]", "value": 4, "unit": "µg/mL"}, {"measurement": "MIC", "setting": "MRSA 3; [11]", "value": "> 128", "unit": "µg/mL"}, {"measurement": "MIC (minimal inhibitory concentration)", "setting": "E. faecalis ATCC 29212 [4]; E. faecalis ATCC 29212", "value": 128, "unit": "µg/mL"}, {"measurement": "MBC", "setting": "E. faecalis ATCC 29212 [4]; Enterococcus faecalis, ATCC29212, E. faecalis ATCC 29212, read-out: MBC (minimal bacteriostatic or fungistatic concentration)", "value": 4, "unit": "µg/mL"}, {"measurement": "MIC", "setting": "E. faecalis ATCC 29212 [4]; Enterococcus faecalis, ATCC29212, E. faecalis ATCC 29212, read-out: MIC (minimal inhibitory concentration)", "value": "> 128", "unit": "µg/mL"}, {"measurement": "MIC (minimal inhibitory concentration)", "setting": "E. faecium VRAR E315 [5]", "value": ">128", "unit": "µg/mL"}, {"measurement": "MBC", "setting": "E. faecium VRAR E315 [5]; Enterococcus faecium, VRARE315, read-out: MBC (minimal bacteriostatic or fungistatic concentration)", "value": 4, "unit": "µg/mL"}, {"measurement": "MIC", "setting": "E. faecium VRAR E315 [5]; Enterococcus faecium, VRARE315, read-out: MIC (minimal inhibitory concentration)", "value": "> 128", "unit": "µg/mL"}, {"measurement": "MBC", "setting": "B. cepacia SCV 141; SCV141, read-out: MBC (minimal bacteriostatic or fungistatic concentration)", "value": 32, "unit": "µg/mL"}, {"measurement": "MIC", "setting": "B. cepacia SCV 141; SCV141, read-out: MIC (minimal inhibitory concentration)", "value": 128, "unit": "µg/mL"}, {"measurement": "MBC (minimal bacteriostatic or fungistatic concentration)", "setting": "B. cepacia WT139", "value": "not observed"}, {"measurement": "MIC (minimal inhibitory concentration)", "setting": "B. cepacia WT139", "value": ">128", "unit": "µg/mL"}, {"measurement": "MIC", "setting": "B. cepacia WT139; Burkholderia cepacia, read-out: MIC (minimal inhibitory concentration)", "value": "> 128", "unit": "µg/mL"}, {"measurement": "MIC", "setting": "[6]", "value": "> 128", "unit": "µg/mL"}, {"measurement": "effect on kinetics of growth", "setting": "[7]; far below the MIC, first 4 hours", "value": "kills off this bacterium within the first 4 hours following dosage"}, {"measurement": "growth reduced by a factor", "setting": "[7]; subsequent cultivation time", "value": 10}, {"measurement": "effect on kinetics of growth", "setting": "[8]", "value": "almost completely inhibited"}, {"measurement": "effect on cell division, electron microscope", "setting": "S. aureus MRSA 3", "value": "disrupted cell division"}, {"measurement": "effect on cell division, electron microscope", "setting": "Burkholderia cepacia SCV", "value": "anomalously sized cells were also evident"}, {"measurement": "bacteriostatic concentration", "setting": "[9]", "value": "0.05 to 4", "unit": "µg/mL"}]}]}
